# Source: US20120082626A1, “USE OF R-BAMBUTEROL AS INHALED MEDICAMENT AND COMBINATION THERAPIES FOR TREATMENT OF RESPIRATORY DISORDERS” (priority 2009, published 2012)
# Entries after “also recorded” stand apart in the source; their conditions may differ. Marks after values point to notes of the source that are not given here.
# How the values were obtained:
# [1] = test system: OVA evoked asthma in sensitized guinea pigs; assay: Airway resistance and dynamic pulmonary compliance after inhalation in OVA sensitized guinea pigs; format: in vivo; conditions: for change of Raw and Cdyn at resting state after inhalation: before OVA challenge; for protection against asthma attack by antigen (OVA) challenge: pretreatment by inhalation about three minutes before OVA challenge
# Description: Sensitization of animals: Ovalbumin (10 μg/ml) was injected into guinea-pigs subcutaneously and coincidentally with an intraperitoneal injection of B. pertussis vaccine. Identical injection of ovalbumin and adjuvant were made day 15 and 21 days later. On day 28th the animals were examined and used for studies.
# Test Methods: The sensitized guinea pigs wer anaethetized. A cannula was inserted into the trachea. A plueral cannula was inserted into pleural space through the chest wall. Airway resistance (Raw) and dynamic pulmonary compliance (Cdyn) were measured by using the signals of intraplueral pressure, airflow and tidal volume.
# The animals were restreined in closed chamber and nebulized R-bambuterol or S-bambuterol were inhaled at the dose of 126 μg/kg. After three minutes conditioning, the animals were then challenged with nebulized OVA to evoke asthma. Airway resistance (Raw) and dynamic pulmonary compliance (Cdyn) were measured before and after evoking asthma.
# [2] = oral; cited from earlier work
# [3] = test system: OVA evoked asthma in sensitized guinea pigs; assay: Drug tolerance to R-bambuterol induced by pretreatment; format: in vivo; conditions: for Changes in Cdyn During asthma / Changes in Raw During asthma: OVA challenge, n=8
# Description: Animal sensitization and experiment methods were similar as discribed above. Briefly, animals were divided into three groups. R-bambuterol (8 mg/kg) or S-bamburerol (8 mg/kg) or 0.9% NaCL (control) were given orally in equal volum to each group seperatedly once a day for 7 consecutive days in order to induce drug tolerances. The Protection effects of same dosage of R-bambuterol against asthma attack induced by OVA challenge were evaluated by the changes of Airway resistance (Raw) and dynamic pulmonary compliance (Cdyn).
# [4] = test system: OVA evoked asthma in sensitized guinea pigs; assay: Airway resistance and dynamic pulmonary compliance after inhalation in OVA sensitized guinea pigs; format: in vivo; conditions: n=8
# [5] = test system: histamine evoked asthma in conscious guinea-pigs; assay: Protection against histamine-evoked asthma by inhaled drug in conscious guinea pigs; format: in vivo, guinea pigs (Dunkin-Hartley strain); conditions: for Latency: no collapse over 360 sec recorded as 360
# Description: (§1) Test methods: Guinea pigs (Dunkin-Hartley strain, 200±30 g) were fasted overnight but given water ad libidum. The animals were restrained individually in a glass chamber and exposed to aerosol histamine generated by a nebulizer from a 0.2% aqueous solution of histamine under constant pressure at dose of 0.5 ml/min for a period of 15 sec. The animal was removed from the chamber, and its behavior was monitored. Assign of collapse and the latency time from exposure to collapse were recorded. Only the animals with latency time less than 120 sec, as an indication of sensitive to histamine, were chosen for later experiments. The animals chosen were allowed to recover completely by resting for 24 hours before experiments. R-bambuterol and racemic bambuterol hydrochloride were dissolved in saline and nublized in a nebulizer.
# Study of dose-response: One hours before the exposure to aerosol histamine, animals were randomized into groups (n=8, equal sex), and Nublized R-bambuterol hydrochloride or bambuterol hydrochloride in doses of 63, 126, 252 and 504 μg/kg, and vehicle control were inhaled by the animals via a mouth and nasal mask. The numbers of collapsed animal as a result of asthmatic reaction to aerosol histamine were counted, and the latency times were recorded. Both of these parameters were used as quantitative measurements of the protective effects of the treatments on bronchospasm evoked by aerosol histamine.
# [6] = test system: OVA evoked asthma in sensitized guinea pigs; assay: Airway resistance in OVA asthma attack after oral administration in sensitized guinea pigs; format: in vivo
# Description: Sensitized animals were divided into Saline (control), S-Bambuterol and R-bambuterol groups. R or S bambuterol were administered by both inhalation by oral ([…]). Airway resistance (Raw) and dynamic pulmonary compliance (Cdyn) were measured at resting or during astham challenge by OVA. Animal preparation and experimental methods were similar as described previously.
# [7] = test system: histamine evoked asthma in conscious guinea-pigs; assay: Time course of anti-asthma effects after oral administration or inhalation; format: in vivo; conditions: for No. of collapsed: n=8
# Description: The time course of the anti-asthma effects of R-bambuterol (R-BM) and bambuterol (RS-BM) after administered by oral and by inhalation. Test Methods: same as example 1 except the following:
# For orally administration, R-Bambuterol hydrochloride or racemic bambuterol hydrochloride at 4 and 8 mg/kg, and vehicle alone, were administered to the guinea pigs orally via a stomach tube. Exposure of treated animals to aerosol histamine (as above) was done at 1, 4 and 12 hours after R-bambuterol or bambuterol treatment. For each experimental group, there were a total of 8 animals with equal number in sex, and no repeated exposure was made for individual experimental animals.
# For inhalation, R-Bambuterol hydrochloride or racemic bambuterol hydrochloride at 0.252 and 0.504 mg/kg, and vehicle alone, were nebulized and administered to the guinea pigs by inhalation. Exposure of drug treated animals to aerosol histamine (as above) was done at 1,4 and 12 hours after drug treatment. For each experimental group, there were a total of 8 animals with equal number in sex, and no repeated exposure was made for individual experimental animals.
# [8] = test system: histamine evoked asthma in conscious guinea-pigs; assay: Histamine-evoked asthma in conscious guinea pigs after oral administration; format: in vivo, guinea pigs (Dunkin-Hartley strain); conditions: for Latency: no collapse over 360 sec recorded as 360
# Description: as §1
# Comparison of the anti-asthma effects of R-bambuterol (R-BM) and bambuterol (RS-BM) administered by oral and by inhalation in conscious guinea pigs. Test methods: same as Example 1.
# Study of dose-response: Same as Example 1, except the following: four hours before the exposure to aerosol histamine, animals were randomized into groups (n=8, equal male and female), and given R-bambuterol hydrochloride or racemic bambuterol hydrochloride in doses of 1.0, 2.0, 4.0 and 8.0 mg/kg, and vehicle control, orally via a stomach tube.
# [9] = pretreated with the labelled substance 8 mg/kg orally once a day 7 days, then R-bambuterol
# [10] = saline pretreated group, protection by R-bambuterol
# [11] = R-BM inhaled 504 μg/kg, OVA challenge
# [12] = after R-BM inhaled 504 μg/kg, before OVA challenge
# [13] = inhale, at maximum effective dose (R-BM 0.252, RS-BM 0.505 mg/Kg)
# [14] = inhalation (R-BM 252 μg/kg, RS-BM 504 μg/kg), histamine 60 min after
# [15] = inhalation (R-BM 252 μg/kg, RS-BM 504 μg/kg), histamine 240 min after
# [16] = inhalation (R-BM 252 μg/kg, RS-BM 504 μg/kg), histamine 720 min after
# [17] = oral (R-BM 4.0 mg/kg, RS-BM 8.0 mg/kg), histamine 60 min after
# [18] = oral (R-BM 4.0 mg/kg, RS-BM 8.0 mg/kg), histamine 240 min after
# [19] = oral (R-BM 4.0 mg/kg, RS-BM 8.0 mg/kg), histamine 720 min after
# [20] = oral, at maximum effective dose (R-BM 4.0, RS-BM 8.0 mg/Kg)
smiles,measurement,setting,value
CN(C)C(=O)Oc1cc(OC(=O)N(C)C)cc([C@@H](O)CNC(C)(C)C)c1 [R-bambuterol],change of Raw and Cdyn at resting state after inhalation,[1],reduced airway resistance and enhanced pulmonary dynamic compliance
same,change of Raw and Cdyn at resting state after inhalation,[1]; listed as R-Bambuterol,no significant changes both in Raw and Cdyn
same,protection against asthma attack by antigen (OVA) challenge,[1],significant anti-asthma effects; also recorded: fully protection against the asthma attack
same,protection against asthma attack by antigen (OVA) challenge,[1]; listed as R-BM,full protection
same,time of maximum concentration (tmax),[2],around one
same,protection effects of R-bambuterol against asthmatic attack after pretreatment,[3]; group pretreated with the labelled substance,less than control but no significant differences
same,Changes in Cdyn During asthma,[3]; [9],−0.11 ± 0.08
same,Changes in Raw During asthma,[3]; [9],+0.13 ± 0.09
same,protection against asthma attack in control group,[3]; saline pretreated control group,fully protect against asthma attack
same,Changes in Cdyn During asthma,[3]; [10],−0.08 ± 0.06^•
same,Changes in Raw During asthma,[3]; [10],+0.09 ± 0.03^•
same,Cdyn (dynamic pulmonary compliance),[4]; [11],0.62 ± 0.02
same,Raw (airway resistance),[4]; [11],11.51 ± 1.09
same,Cdyn (dynamic pulmonary compliance),[4]; [12],0.70 ± 0.03
same,Raw (airway resistance),[4]; [12],10.91 ± 0.41
same,dosage required for maximum anti-asthmatic effects (complete protection against histamine) by inhalation,[5]; inhalation,256 µg/kg
same,maximum effective dose required by inhalation,[5]; inhale,Inhale (0.252) mg/Kg
same,Animal collapsed (%),[5]; [13],0%
same,Animal collapsed (number/group),[5]; [13],0/8
same,Latency,[5]; inhaled 63 μg/Kg,95 ± 108 s
same,Latency,[5]; inhaled 126 μg/Kg,243 ± 161 s
same,Latency,[5]; inhaled 252 μg/Kg,360 ± 0 s
same,Latency,[5]; inhaled 504 μg/Kg,360 ± 0 s
same,potency relative to bambuterol,"[5]; inhaled aerosols, histamine evoked asthma",about twice
same,Oral:Inhale ratio of maximum effective dose,"[5]; oral dose vs inhaled dose for maximum anti-asthmatic effect, listed as R-bamubuterol",16
same,change in Raw / asthmatic response during the asthmatic attack by OVA,[6]; oral,little changes in Raw
same,Changes in Airway resistance (Raw) at 4th min after OVA challenge,"[6]; pretreated oral 4 m/kg, n=8",0.14 ± 0.13
same,Changes in Airway resistance (Raw) at 5th min after OVA challenge,"[6]; pretreated oral 4 m/kg, n=8",0.11 ± 0.08
same,Latency,[7]; [14],360 ± 0 s
same,No. of collapsed,[7]; [14],0/8
same,Latency,[7]; [15],360 ± 0 s
same,No. of collapsed,[7]; [15],0/8
same,Latency,[7]; [16],330 ± 84 s
same,No. of collapsed,[7]; [16],1/8
same,maximum anti-asthmatic effects by inhalation faster than by oral administration,[7]; inhalation vs oral,4 h
same,Latency,[7]; [17],258 ± 141 s
same,No. of collapsed,[7]; [17],3/8
same,Latency,[7]; [18],360 ± 0 s
same,No. of collapsed,[7]; [18],0/8
same,Latency,[7]; [19],285 ± 129 s
same,No. of collapsed,[7]; [19],2/8
same,maximum effective dose required by oral (none of the histamine challenged animals collapsed),[8]; oral,4 mg/kg
same,Latency,[8]; oral 1.0 mg/Kg,179 ± 151 s
same,Latency,[8]; oral 2.0 mg/Kg,295 ± 121 s
same,(Collapsed)/No. in group,"[8]; oral 4.0 mg/Kg, four hours before aerosol histamine, n=8",0/8**^▴▴
same,Latency,[8]; oral 4.0 mg/Kg,360 ± 0 s
same,Latency,[8]; oral 8.0 mg/Kg,360 ± 0 s
same,Animal collapsed (%),[8]; [20],0%
same,Animal collapsed (number/group),[8]; [20],0/8
same,maximum effective dose required by oral (none of the histamine challenged animals collapsed),"[8]; oral, listed as R-BM",Oral (4.0) mg/Kg
